Laboratory results: patent publication US7820679B2, “N-(-3-methoxy-5-methylpyrazin-2-yl)-2-(4-′1,3,4-oxadiazol-2-yl-phenyl)pyridine-3 sulphonamide as an anticancer agent” (AstraZeneca AB, priority 2002, dated 2010)
Values joined by “and” are separate entries in the source; they are usually repeats but may differ in a detail not shown here. Identical values can stand only once. Where no end group is shown, it is not given here.

Assays:
[1] = molecular target: T1, Human recombinant ETB receptor (Homo sapiens, UniProt P24530); assay: Endothelin human receptor binding assay (125I-ET-1 competition), ETB; conditions: at a concentration of 10^-4 M, n=3
T1 construct: expressed in transfected cells; host or cells: mouse erythroleukaemic (MEL) cells, membrane preparation
T1 sequence (P24530 27-442): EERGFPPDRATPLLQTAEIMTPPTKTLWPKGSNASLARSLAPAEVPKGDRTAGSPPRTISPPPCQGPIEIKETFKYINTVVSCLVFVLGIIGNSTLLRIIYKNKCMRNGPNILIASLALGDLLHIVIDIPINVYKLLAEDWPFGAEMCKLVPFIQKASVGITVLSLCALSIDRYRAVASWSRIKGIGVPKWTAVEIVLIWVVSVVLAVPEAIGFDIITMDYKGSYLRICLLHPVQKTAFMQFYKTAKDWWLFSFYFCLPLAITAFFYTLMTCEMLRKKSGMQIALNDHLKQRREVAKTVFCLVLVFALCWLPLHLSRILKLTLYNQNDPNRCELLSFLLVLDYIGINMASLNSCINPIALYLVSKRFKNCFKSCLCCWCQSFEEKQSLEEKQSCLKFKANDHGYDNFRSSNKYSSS
From the text: 1) Endothelin Human Receptor Binding Assay

[2] = system: ET-1 induced MAPK phosphorylation in MC3T3.E1/J1 cells; assay: Inhibition of ET-1 induced MAPK phosphorylation in osteoblast cell line MC3T3.E1/J1 (western blot, densitometry); format: cell-based, mouse; conditions: Serum Free Media = 100.00
Method: The MC3T3. E1/J1 cell line was isolated from a parental cell line, MC3T3-E1 (available from Invitrogen), which had in turn been derived from newborn C57BL/6 mouse calvaria. The MC3T3 E1/J1 line is described as an osteoblastic line. To initiate the experiments described below, MC3T3.E1/J1 cells were plated at a density of 2.4×10^4 cells/well (24 well plates) in serum containing media and incubated for 48 hours. The cells were washed twice in PBS and re-incubated for approximately 17 hours in serum starvation media.
All media was then removed and the cells lysed and stored at −20° C. for electrophoresis/western blot, which localized phosphorylated MAPK and phosphorylated Akt probing with anti-phospho-p44/42 MAPK (Thr 202/204) and anti-Phospho AKT (Ser 473) antibodies (both commercially available from Cell Signalling Technology). The protein bands were quantitated by densitometry, and plotted as arbitrary densitometry units. Phosphorylated MAPK levels were normalised to total MAPK levels.

DU145 prostate tumour = assay: Inhibition of angiogenesis in primary tumours, intradermal DU145 tumour in nude mice; format: in vivo; conditions: 5 days, vs vehicle
From the text: (§1) A 1 cm^2 area with the tumour at the centre was examined and the number of blood vessels bifurcations within that area supplying the tumour were counted.

LOVO colon tumour = assay: Inhibition of angiogenesis in primary tumours, intradermal LOVO tumour in nude mice; format: in vivo; conditions: 5 days, vs vehicle
From the text: as §1

endothelin receptors = assay: Human forearm blood flow, vasoconstriction in response to infused ET-1; format: in vivo; conditions: healthy male subjects, single oral doses 10 mg and 30 mg, 2-4 hours post dosing; p=0.0210; evidence of a dose response
From the text: Human forearm blood flow can be assessed by temporarily impeding the venous drainage from the arm by the application of a pneumatic cuff on the upper arm, which is then inflated to just above venous pressure. The resulting arterial flow into the arm with no corresponding venous drainage leads to engorgement and swelling of the forearm, which can be detected with sensitive strain gauges. Infusion of the arterial vasoconstrictor ET-1 into the brachial artery leads to a reduction in forearm distension due to decreased arterial inflow. This vasoconstriction is mediated via endothelin receptors on the vascular endothelium and associated smooth muscle.

mean displacement at the ETB receptor [1] [%]	Molecule	Phosphorylated MAPK, Average ([2]; ET-1 100 nm + Compound (I) 0.1 μm, normalised to total MAPK)	Phosphorylated MAPK, Average ([2]; ET-1 100 nm + Compound (I) 1 μm, normalised to total MAPK)	Phosphorylated MAPK, Average ([2]; ET-1 100 nm + Compound (I) 10 μm, normalised to total MAPK)	Phosphorylated MAPK, Average ([2]; ET-1 100 nm + Compound (I) 20 μm, normalised to total MAPK)	Inhibition of vessel count (DU145 prostate tumour; 25 mg/kg once daily p.o.)	Inhibition of vessel count (DU145 prostate tumour; 50 mg/kg once daily p.o.)	Inhibition of vessel count (LOVO colon tumour; 25 mg/kg once daily p.o.)	Inhibition of vessel count (LOVO colon tumour; 50 mg/kg once daily p.o., 50 mg/kg)	forearm blood flow in response to infused ET-1 compared to placebo (endothelin receptors)	Phosphorylated MAPK, Average ([2]; ET-1 100 nm alone, 3 minutes stimulation)
1.2±0.7	COc1nc(C)cnc1NS(=O)(=O)c1cccnc1-c1ccc(-c2nnco2)cc1 [Compound (I), N-(3-methoxy-5-methylpyrazin-2-yl)-2-(4-[1,3,4-oxadiazol-2-yl]phenyl)pyridine-3-sulphonamide]	422.11 arbitrary densitometry units	157.41 arbitrary densitometry units	105.15 arbitrary densitometry units	109.18 arbitrary densitometry units	38% (P < 0.001)	30% (P < 0.05)	28% (P < 0.001)	20% (P = 0.001) and 28% (P < 0.001)	statistically significant reduction	–
–	ET-1: endogenous 21 amino acid peptide, endothelin isoform; used as stimulus and radioligand (CSCSSLMDKECVYFCHLDIIW; ends and bridges not checked; cysteine pairing not given here; UniProt P05305 53-73, looked up) [reference compound]	–	–	–	–	–	–	–	–	–	312.78 arbitrary densitometry units and 369.85 arbitrary densitometry units
